Patent US7341859B2, “ADH from Rhodococcus erythropolis” (Degussa AG, priority 2002, dated 2008)
Read-outs that look alike come from different tables or passages of the source.

How the values were obtained:
[1] = test system: ADH in accordance with DE 4209022; details: cited from earlier work
[2] = test system: alcohol dehydrogenase from R. erythropolis (RE-ADH, new ADH expr. in E. coli); assay: Relative/specific activity of substrates with the new ADH from R. erythropolis (photometric NADH test); assay type: biochemical, Rhodococcus erythropolis; details: for Relative activity [%]: relative to acetophenone = 100
Description: In this case, as is normal, the measured activity for one compound is set at 100% and the activity/activities of the other compound(s) is determined in relation thereto. From the relative activities when compared with other substrates, it can then be recognised whether such another substrate is accepted to a greater or lesser extent.
A first purification can be achieved by anion exchange chromatography (MonoQ-Material, Pharmacia) (mobile buffer: 50 mM TEA buffer, pH 7.0; elution with a NaCl gradient of 0-1 M).
For the activity test, the cells were harvested (15 min centrifuging at 14000 rpm, 4° C.) and degraded after resuspension with 100 mM KPi buffer, pH 6.0 (1.5 ml of buffer per 1 g of cells). For the purposes of degradation, the suspension was treated with ultrasound (2×30 sec. power 100%, pulse 50), then the cell broth was centrifuged. The supernatant liquid is the soluble crude extract, the sediment is the insoluble fraction.
For a comparison using relative activities, the activity of the two enzymes was given with respect to phenylacetaldehyde=100%.
In this case, the relative activity is given with respect to the activity measured for acetophenone.

[3] = test system: alcohol dehydrogenase from R. erythropolis; assay: Preparative reduction of keto-compounds with ADH and formate dehydrogenase regeneration, chiral GC; assay type: biochemical, Rhodococcus erythropolis; details: for Conversion after 10 min [%]: 10 mM keto-compound, 0.5 U/ml alcohol dehydrogenase; for ee [%] of the product: enzymatic reduction, chiral GC
Description: The product is analysed by means of gas chromatography, wherein the stationary phase in the GC column is capable of separating enantiomeric alcohols so that information on the ee values of the enzymatically prepared product can be obtained.
Such a mixture for reduction contains: • 10 mM keto-compound • 0.5 mM NAD • 100 mM Na formate • 1 U/ml formate dehydrogenase
At the times 0, 5 min and 10 min, samples are taken (100 μl), extracted with 100 μl of chloroform and the chloroform phase is analysed using gas chromatography.
Column: CP-Chirasil-DEX CB length: 25 m, diameter: 25 μm (Chrompack). Temperature programme: 5 min at 60° C., then 5° C./min up to 190° C. (for hexanone/hexanol: 30 min at 60° C., then 10° C./min to 195° C.). Column flow 1.3 ml/min; gas:helium
p-Cl-acetophenone, acetophenone, ethyl 2-oxobutyrate, 2-hexanone and 2-heptanone.

[4] = test system: aldehyde reductase from Corynebacterium sp.; details: cited from earlier work; for relative activity: phenylacetaldehyde = 100%
CC(=O)c1ccc(Cl)cc1 = assay: purified protein, by the assay type; details: other: reduction reaction
C[C@H](O)c1ccc(Cl)cc1 = assay: purified protein, by the assay type; details: other: oxidation reaction
ADH from R. erythropolis = assay: Enantioselective oxidation of (R,S)-phenylethanol with ADH and NADH oxidase, chiral GC; assay type: biochemical, Rhodococcus erythropolis; details: after 2 h; for oxidation of the enantiomer: 10 mM (R,S)-phenylethanol
Description: By means of enantioselective oxidation of an alcohol, an enantiomer-enriched or enantiomer-pure alcohol, for example, can be obtained from a racemate.
Samples were taken after 0, 1 and 2 h and separated by gas chromatography (column: CP-Chirasil-DEX CB length: 25 m, diameter: 25 μm (Chrompack). Temperature programme: 5 min at 60° C., then 5° C./min up to 190° C.; column flow rate 1.3 ml/min; gas: helium. In this case, both the acetophenone peak (product; retention time=16.9 min), and also the enantiomers of phenylethanol (reactants; retention times R-phenylethanol=20.8 min and S-phenylethanol=21.1 min) were recorded.

[5] = test system: ADH in accordance with J. Peters, Dissertation; details: cited from earlier work
[6] = test system: whole cells of R. erythropolis; assay: Continuous conversion with alginate-immobilised whole cells in a column; assay type: cell-based, Rhodococcus erythropolis; details: 1.5 mM, 2 ml per h
Description: Our results with whole cells of R. erythropolis indicate that this strain contains several ADHs, including at least one with opposite enantioselectivity. […] However, this high ee value is retained for only about 10 h (about 3 volume changes), then the ee value drops drastically while the conversion remains at the same high level.

[7] = substrate: NC(=O)c1ccc[n+]([C@@H]2O[C@H](COP(=O)([O-])OP(=O)(O)OC[C@H]3O[C@@H](n4cnc5c(N)ncnc54)[C@H](O)[C@@H]3O)[C@@H](O)[C@H]2O)c1; assay: purified protein, by the assay type; details: other: oxidation reaction
[8] = relative to p-fluoroacetophenone = 100%, listed as drawing 5
[9] = relative to p-fluoroacetophenone = 100%, listed as p-methoxyacetophenone
[10] = relative to p-methylacetophenone = 100%
[11] = relative to 2-heptanone = 100%, listed as 2-decanone
[12] = relative to 2-heptanone = 100%, listed as drawing 11
[13] = relative to 2-heptanone = 100%, listed as 2-heptanone
[14] = relative to 2-heptanone = 100%, listed as drawing 10
[15] = relative to methyl acetoacetate = 100%
[16] = relative to methyl acetoacetate = 100%, listed as drawing 9
[17] = relative to methyl acetoacetate = 100%, listed as p-chloroacetophenone
[18] = relative to p-methylacetophenone = 100%, listed as drawing 3
[19] = relative to p-methylacetophenone = 100%, listed as p-chloroacetophenone
[20] = relative to 2-heptanone = 100%, listed as drawing 12
[21] = relative to 2-heptanone = 100%, listed as phenoxyacetone

For COc1ccc(C(C)=O)cc1 [p-methoxy-acetophenone, p-methoxyacetophenone], the relative activity [1, 8] is listed as 90%, the relative activity [1, 9] is listed as 90% and the “Relative activity [%]” value [2] is listed as 232%. It also gave a relative activity [2, 8] of 195% and a relative activity [2, 9] of 195%.

In the case of CC(=O)c1ccc(F)cc1 [p-F-acetophenone, p-fluoroacetophenone], the relative activity ([1]; relative to p-fluoroacetophenone = 100%, listed as drawing 6) is given as 100%, the relative activity ([1]; relative to p-fluoroacetophenone = 100%, listed as p-fluoroacetophenone) is given as 100% and the “Relative activity [%]” value [2] is given as 194%. For the same molecule, the relative activity ([2]; relative to p-fluoroacetophenone = 100%) was 100%.

In the case of CC(=O)c1ccc(C)cc1 [p-methyl-acetophenone, p-methylacetophenone], the relative activity [1, 10] is given as 100%, the “Relative activity [%]” value [2] is given as 640% and the relative activity [2, 10] is given as 100%.

For CCCCC(C)=O [2-hexanone], the “Conversion after 10 min [%]” value [3] was over 95% and the “ee [%] of the product” value [3] was over 99%.

In the case of O=CCc1ccccc1 [Phenylacetaldehyde], the relative activity [4] is given as 100% and the relative activity ([2]; phenylacetaldehyde = 100%) is given as 100%.

RE-ADH (Rhodococcus erythropolis) gave a Km (CC(=O)c1ccc(Cl)cc1) of 500 µM and a Km (C[C@H](O)c1ccc(Cl)cc1) of 280 µM.

For CCCCC=O [Valeraldehyde], the relative activity [4] is listed as 181% and the relative activity ([2]; phenylacetaldehyde = 100%) is listed as 433%.

With C[C@@H](O)c1ccccc1 [(R)-phenylethanol] the “ee value of the remaining enantiomer” value (ADH from R. erythropolis) was over 99% and the “oxidation of the enantiomer” value (ADH from R. erythropolis) was “remained untouched”.

In the case of CC(=O)c1ccccc1 [Acetophenone], the “activity for acetophenone reduction” value ([4]; homogeneous enzyme) is given as 22.4 U/mg, the relative activity [4] is given as 35% and the “Conversion after 10 min [%]” value [3] is given as over 95%. The “ee [%] of the product” value [3] was over 99%, the “activity of Rhodococcus ADH compared with the Corynebacterium enzyme” value ([2]; highly purified enzymes, towards acetophenone) was “about 15 times” and the “activity for acetophenone reduction” value ([2]; homogeneous enzyme) was 348 U/mg. The relative activity ([2]; phenylacetaldehyde = 100%) was 87% and the “Relative activity [%]” value [2] was 100%.

In the case of CCCCCCCCC(C)=O [Decan-2-one, 2-decanone], the relative activity [5, 11] is given as 79%, the relative activity [5, 12] is given as 79% and the relative activity [2, 11] is given as 76%. The relative activity [2, 12] was 76% and the “Relative activity [%]” value [2] was 2521%.

In the case of C[C@H](O)c1ccccc1 [(S)-phenylethanol], the “oxidation of the enantiomer” value (ADH from R. erythropolis) is reported as “fully oxidised”.

In the case of CCCCCC(C)=O [Heptan-2-one, 2-heptanone], the relative activity [5, 13] is given as 100%, the relative activity [5, 14] is given as 100% and the “Conversion after 10 min [%]” value [3] is given as over 95%. The “ee [%] of the product” value [3] was over 99%, the relative activity [2, 13] was 100% and the relative activity [2, 14] was 100%. The “Relative activity [%]” value [2] was 3328%.

In the case of COC(=O)CC(C)=O [Methyl acetoacetate, methyl acetoacetate], the relative activity [5, 15] is listed as 100%, the “Relative activity [%]” value [2] is listed as 134% and the relative activity [2, 15] is listed as 100%. For the same molecule, the relative activity ([2]; relative to methyl acetoacetate = 100%, listed as methyl ester) was 100%.

With CCOC(=O)C(=O)CC [Ethyl 2-oxobutyrate, ethyl 2-oxobutyrate] the “Conversion after 10 min [%]” value [3] was over 95% and the “ee [%] of the product” value [3] was over 99%.

With CC(=O)c1cccc(Cl)c1 [m-Cl-acetophenone] the “Relative activity [%]” value [2] was 2384%.

In the case of CC(=O)c1ccc(Cl)cc1 [p-Cl-acetophenone, p-chloroacetophenone], the relative activity [5, 16] is given as 100%, the relative activity [5, 17] is given as 100% and the “ee of (S)-p-chloro-2-phenylethanol obtained” value ([6]; after 25 h (about 9 volume changes)) is given as 70 % ee. For the same molecule, the “ee of the alcohol obtained” value ([6]; after 50 h (about 18 volume changes)) was “about 5 % ee”, the relative activity [4] was 338% and the “Conversion after 10 min [%]” value [3] was over 95%. For the same molecule, the “enantiomeric form of the product of conversion by the new alcohol dehydrogenase” value ([3]; also when used several times or at higher concentrations) was “enantiomerically pure”, the “ee [%] of the product” value [3] was over 99% and the relative activity [1, 18] was 81%. The relative activity [1, 19] was 81%, the relative activity ([2]; phenylacetaldehyde = 100%) was 288% and the “Relative activity [%]” value [2] was 1198%. The relative activity [2, 16] was 909%, the relative activity [2, 17] was 909% and the relative activity [2, 18] was 189%. For the same molecule, the relative activity [2, 19] was 189%.

In the case of CC(=O)COc1ccccc1 [Phenoxyacetone, phenoxyacetone], the relative activity [5, 20] is given as 71%, the relative activity [5, 21] is given as 71% and the relative activity [2, 20] is given as 126%. The relative activity [2, 21] was 126% and the “Relative activity [%]” value [2] was 4180%.

In the case of CCOC(=O)CC(C)=O [Ethyl acetoacetate], the relative activity [5, 15] is listed as 250%, the relative activity ([5]; relative to methyl acetoacetate = 100%, listed as β-ketoethyl esters) is listed as 250% and the “Relative activity [%]” value [2] is listed as 1020%. It also gave a relative activity [2, 15] of 773% and a relative activity ([2]; relative to methyl acetoacetate = 100%, listed as β-ketoethyl ester) of 773%.

B1: RE-ADH (Rhodococcus erythropolis) (protein)
chain: MKAIQYTRIGAEPELTEIPKPEPGPGEVLLEVTAAGVCHSDDFIMSLPEEQYTYGLPLTLGHEGAGKVAAVGEGVEGLDIGTNVVVYGPWGCGNCWHCSQGLENYCSRAQELGINPPGLGAPGALAEFMIVDSPRHLVPIGDLDPVKTVPLTDAGLTPYHAIKRSLPKLRGGSYAVVIGTGGLGHVAIQLLRHLSAATVIALDVSADKLELATKVGAHEVVLSDKDAAENVRKITGSQGAALVLDFVGYQPTIDTAMAVAGVGSDVTIVGIGDGQAHAKVGFFQSPYEASVTVPYWGARNELIELIDLAHAGIFDIAVETFSLDNGAEAYRRLAAGTLSGRAVVVPGL
B1 gave a Km [7] of 82 µM.
